The source of these data is BindingDB's records for doi:10.1021/acs.jmedchem.1c00256 (University of Strasbourg, 2021).

The target in one experiment is KiSS-1 receptor (Homo sapiens, UniProt Q969F8). As to the kind of experiment: Displacement of [125I]-Kp-10 from human Kiss1 receptor by TopCount scintillation counting method. Background: In a radioligand displacement assay an active substance lowers the binding of a labelled ligand.
Experiment [1] addresses Prolactin-releasing peptide receptor PRLHR (Homo sapiens) (UniProt P49683). The experiment is described as follows: Displacement of [3H]-PrRP-20 from human PrRP receptor expressed in CHO cells by TopCount scintillation counting method.

Sequence of Prolactin-releasing peptide receptor PRLHR (Homo sapiens) (P49683 whole entry, looked up): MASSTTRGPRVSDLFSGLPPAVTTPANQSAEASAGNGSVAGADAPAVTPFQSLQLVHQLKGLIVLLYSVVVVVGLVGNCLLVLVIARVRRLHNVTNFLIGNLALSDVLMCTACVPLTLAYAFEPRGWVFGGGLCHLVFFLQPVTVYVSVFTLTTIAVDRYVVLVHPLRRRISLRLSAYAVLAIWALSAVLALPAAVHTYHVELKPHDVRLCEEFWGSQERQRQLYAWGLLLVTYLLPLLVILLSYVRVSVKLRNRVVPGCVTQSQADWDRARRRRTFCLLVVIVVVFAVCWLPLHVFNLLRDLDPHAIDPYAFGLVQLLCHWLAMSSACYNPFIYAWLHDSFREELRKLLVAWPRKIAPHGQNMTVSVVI
Sequence of KiSS-1 receptor (Q969F8 whole entry): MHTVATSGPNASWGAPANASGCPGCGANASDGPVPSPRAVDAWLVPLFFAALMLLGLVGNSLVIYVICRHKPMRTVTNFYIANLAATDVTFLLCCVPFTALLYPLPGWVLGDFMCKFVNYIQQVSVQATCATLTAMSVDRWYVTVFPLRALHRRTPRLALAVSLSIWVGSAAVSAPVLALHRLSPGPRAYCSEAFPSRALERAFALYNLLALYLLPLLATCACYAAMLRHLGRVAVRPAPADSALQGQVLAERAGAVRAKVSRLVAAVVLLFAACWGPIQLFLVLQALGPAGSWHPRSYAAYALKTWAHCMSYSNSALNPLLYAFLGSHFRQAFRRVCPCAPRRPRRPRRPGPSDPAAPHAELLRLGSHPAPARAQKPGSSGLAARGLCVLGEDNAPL

A word on the Ki: it is a dissociation constant, usually derived from enzyme kinetics or from competition with a known ligand. Compound `CC(C)C[C@H](NC(=O)CNC(=O)[C@H](Cc1ccccc1)NC(=O)[C@H](CO)NC(=O)[C@H](CC(N)=O)NC(=O)[C@H](Cc1c[nH]c2ccccc12)NC(=O)[C@H](CC(N)=O)NC(=O)[C@@H](N)Cc1ccc(O)cc1)C(=O)N[C@@H](CCCNC(=N)N)C(=O)N[C@@H](Cc1ccccc1)C(N)=O` [Kisspeptin-10] came in with a Ki at KiSS-1 receptor of 0.062 nM. In other words, the picomolar range.
In experiment [1], H-TPDINPAWYASRGIRPVGRF-NH2 came in with an inhibitory constant (Ki) of 2.1 nM.
Turning to `N=C(N)NCCC[C@@H](NC(=O)C=C(c1ccccc1)c1ccccc1)C(=O)N[C@H](Cc1ccccc1)C(N)=O`, the Ki in experiment [1] was over 50000 nM.
